Measured values taken from the NIST ThermoML archive (doi:10.1016/j.jct.2014.07.004).
Numbers after ± are expanded uncertainties.

Settings: Liquid, Closed cell (Static) method

Structure (SMILES)	vapor or sublimation pressure (327.12 K) [kPa]	vapor or sublimation pressure (338.15 K) [kPa]	vapor or sublimation pressure (343.15 K) [kPa]	vapor or sublimation pressure (348.15 K) [kPa]	vapor or sublimation pressure (353.15 K) [kPa]	vapor or sublimation pressure (277.96 K) [kPa]	vapor or sublimation pressure (282.06 K) [kPa]	vapor or sublimation pressure (286.15 K) [kPa]	vapor or sublimation pressure (288.15 K) [kPa]	vapor or sublimation pressure (293.15 K) [kPa]	vapor or sublimation pressure (298.15 K) [kPa]	vapor or sublimation pressure (303.15 K) [kPa]	vapor or sublimation pressure (306.64 K) [kPa]	vapor or sublimation pressure (310.74 K) [kPa]	vapor or sublimation pressure (318.15 K) [kPa]	vapor or sublimation pressure (323.15 K) [kPa]	vapor or sublimation pressure (328.15 K) [kPa]	vapor or sublimation pressure (333.15 K) [kPa]	vapor or sublimation pressure (290.25 K) [kPa]	vapor or sublimation pressure (294.35 K) [kPa]	further results
CC1COC(=O)O1 (stereo not given) [4-methyl-1,3-dioxolan-2-one]	0.057	0.123 ± 0.13	0.185 ± 0.13	0.221 ± 0.13	0.287 ± 0.13																vapor or sublimation pressure (331.22 K): 0.078 ± 0.13 kPa
CCOC(=O)OCC [diethyl carbonate]		11.56 ± 1.2	13.78 ± 1.4	16.09 ± 1.6	20.83 ± 2.1	0.401 ± 0.13	0.515 ± 0.13	0.666 ± 0.13	0.797 ± 0.13	1.031 ± 0.13	1.414 ± 0.14	1.844 ± 0.19	2.347 ± 0.24	3.012 ± 0.3	4.582 ± 0.46	6.172 ± 0.62	7.162 ± 0.72	9.088 ± 0.91			
COC(=O)OC [dimethyl carbonate]						2.298 ± 0.23	3.121 ± 0.32	4.019 ± 0.4			6.982 ± 0.7		11.7 ± 1.2	14.02 ± 1.4	19.82 ± 2	23.07 ± 2.3			4.863 ± 0.49	6.311 ± 0.63	vapor or sublimation pressure (302.54 K): 9.72 ± 0.98 kPa
CCOC(=O)OC [ethyl methyl carbonate]						0.958 ± 0.13	1.285 ± 0.13		2.008 ± 0.2	2.439 ± 0.25	3.658 ± 0.37	4.534 ± 0.46		6.739 ± 0.68		12.28 ± 1.2	15.26 ± 1.5	18.28 ± 1.8			vapor or sublimation pressure (283.15 K): 1.516 ± 0.16 kPa; vapor or sublimation pressure (308.15 K): 5.801 ± 0.58 kPa; vapor or sublimation pressure (314.83 K): 7.885 ± 0.79 kPa
O=C1OCCO1 [ethylene carbonate]		0.066 ± 0.13	0.087 ± 0.13	0.124 ± 0.13	0.175 ± 0.13													0.045			
O [water]	15.18 ± 1.5					0.961 ± 0.13	1.243 ± 0.13	1.442 ± 0.15					5.035 ± 0.51	7.056 ± 0.71					1.947 ± 0.2	2.537 ± 0.26	vapor or sublimation pressure (298.44 K): 3.288 ± 0.33 kPa; vapor or sublimation pressure (302.54 K): 4.068 ± 0.41 kPa; vapor or sublimation pressure (314.83 K): 8.582 ± 0.86 kPa; vapor or sublimation pressure (318.93 K): 9.702 ± 0.97 kPa; vapor or sublimation pressure (323.03 K): 11.46 ± 1.2 kPa
